# Source: patent US11725015B2, “Macrocyclic compound and uses thereof” (President and Fellows of Harvard College, priority 2017, dated 2023)
# Key:
# [1] = test system: OSC-19 subcutaneous xenograft; experiment: Antitumor activity against OSC-19 subcutaneous xenograft model in mice as monotherapy; format: in vivo; conditions: Q7D×2
# Protocol: A human squamous cell carcinoma of the head and neck (SCCHN) cell line OSC-19, which had been cultured in an DMEM/Ham's F-12 (1:1) medium containing 10% FBS, and penicillin and streptomycin, was adjusted to a concentration of 1×10^8 cells/ml with PBS to prepare a cell suspension, and the suspension was mixed with Matrigel™ (BD Bioscience, #366237) in a ratio of 1:1 to prepare a cell suspension in a concentration of 5×10^7 cell/mL. The cell suspension was inoculated in a volume of 100 μL into a subcutaneous part of a right flank of nude mice, 5 weeks of ages (CAnN.Cg-Foxnlnu/CrlCrlj, female, Charles River Laboratories Japan, Inc.).
# On the basis of the volumes of tumors obtained on the first day of administration, the mice were grouped such that averages of the tumor volumes were substantially equal among the groups. The experiment was conducted on groups each consisting of 6 mice. Test compound was dissolved in saline and intravenously administered at doses from 0.06 mg/kg to 0.18 mg/kg once a week for 2 weeks (Q7D×2 schedule).
# [2] = test system: FaDu-Luc subcutaneous xenograft; experiment: FaDu s.c. xenograft model in combination with radiation; format: in vivo, mice
# Protocol: Luciferase-transduced FaDu-Luc cells were established by retrovirus-mediated gene transfer. […]. Then, helper-free recombinant retroviruses were produced by transfecting the above retroviral expression vector together with pGP and pE-Ampho plasmids (Takara Bio; Shiga, Japan), into 293T cells (ATCC; Manassas, USA). Next, FaDu cells were infected with the recombinant retroviruses, and were cultured for two weeks in the presence of puromycin (2 μg/mL). The infected cells were selected from a polyclonal proliferative population of the culture.
# A luciferase-transduced human SCCHN cell line FaDu-Luc, which had been cultured in an RPMI-1640 medium containing 10% FBS, and penicillin and streptomycin, was adjusted to a concentration of 5×10^7 cells/mL with Hank's Balanced Salt Solution to prepare a cell suspension. The cell suspension was inoculated in a volume of 100 μL into a subcutaneous part of a right thigh of nude mice, 6 weeks of ages (CAnN.Cg-Foxnlnu/CrlCrlj, female, Charles River Laboratories Japan, Inc.). Thirteen days after the cell inoculation, the tumor volume was analyzed using bioluminescence signal from FaDu-Luc cells. […] The bioluminescence signal was monitored using the IVIS […] series (PerkinElmer, Waltham, Mass.), consisting of a highly sensitive, cooled chargecoupled device camera. […] Data were analyzed using total photon flux emission (photons/second) in the ROIs. […]
# [3] = test system: TE-8 (human squamous cell carcinoma of the esophagus); experiment: In vitro antiproliferative activity, TE-8; format: cell-based; conditions: TE-8, 72 hours
# Protocol: The in vitro antiproliferative assays for Compound (1) were conducted using a small panel of cancer cell lines including human squamous cell carcinoma of the esophagus (OE21, TE-8), human adenocarcinoma of the esophagus (OE33), and human uterine sarcoma (MES-SA, MES-SA-Dx5-Rx1). All cell lines were cultured in RPMI-1640 medium containing 10% FBS, and penicillin-streptomycin (culture medium), in a 5% CO2 incubator (37° C.). To each well of a 96 well plate (Becton, Dickinson and Company, 353219), 75 μL of cell suspension adjusted to a concentration of 4×10^4 cells/mL with the culture medium was added, and the cells were incubated overnight in a 5% CO2 incubator (37° C.). On the next day, 25 μL of Compound (1) in three-fold dilution series suspended in the culture medium was added to each well, and the resultant was incubated for 72 hours in a 5% CO2 incubator (37° C.). Then, cell viability was determined by CellTiter-Glo® Luminescent Cell Viability Assay (Promega) with 2013 EnVision™ Multilabel Reader (Perkin-Elmer, Wellesley, Mass.). Value of the wells containing cells without adding the test compounds was defined as 100% and the value of the wells containing no cells was defined as 0%. […] The P-gp susceptibility was calculated as the ratio of the IC50 value in MES-SA-Dx5-Rx1 cells, which overexpress P-gp, to the IC50 value in MES-SA cells.
structure (smiles),measurement,setting,value
C=C1C[C@@H]2CC[C@@]34C[C@H]5O[C@H]6[C@@H](O3)[C@H]3O[C@H](CC[C@@H]3O[C@H]6C5O4)CC(=O)O[C@@H]3[C@@H](C)[C@@H]4O[C@@H]5C[C@]6(C[C@@H]7O[C@]8(C[C@H](C)[C@@H]9O[C@H](CN)[C@H](O)C[C@@H]9O8)C[C@H](C)[C@@H]7O6)O[C@@H]5C[C@@H]4O[C@H]3C[C@H]3O[C@@H](CC[C@@H]1O2)C[C@@H](C)C3=C [Compound (1)],Tumor Regression (%),[1]; 0.06 mg/kg intravenously,59%
same,Tumor Regression (%),[1]; 0.18 mg/kg intravenously,90%
same,Tumor Regression (%),[2]; 0.09 mg/kg on day 1 and 8 + radiation 18 Gy on day 4 and day 11,97%
same,Tumor Regression (%),"[2]; 0.09 mg/kg on day 1 and 8, without radiation",0%
same,antiproliferative activity,[3],potent antiproliferative agent
